Source: ChEMBL document CHEMBL1157077, “Gneyulins A and B, stilbene trimers, and noidesols A and B, dihydroflavonol-C-glucosides, from the bark of Gnetum gnemonoides” (J Nat Prod, 2010)

Assays:
[1] = target: T1, Sodium/glucose cotransporter 2 (Homo sapiens, UniProt P31639); test: Inhibition of SGLT2 transfected in african green monkey COS1 cells assessed as alpha-D-[U-14C]glucopyranoside uptake after 30 mins by scintillation counting; assay type: cell-based, COS-1
T1 sequence (P31639 whole entry): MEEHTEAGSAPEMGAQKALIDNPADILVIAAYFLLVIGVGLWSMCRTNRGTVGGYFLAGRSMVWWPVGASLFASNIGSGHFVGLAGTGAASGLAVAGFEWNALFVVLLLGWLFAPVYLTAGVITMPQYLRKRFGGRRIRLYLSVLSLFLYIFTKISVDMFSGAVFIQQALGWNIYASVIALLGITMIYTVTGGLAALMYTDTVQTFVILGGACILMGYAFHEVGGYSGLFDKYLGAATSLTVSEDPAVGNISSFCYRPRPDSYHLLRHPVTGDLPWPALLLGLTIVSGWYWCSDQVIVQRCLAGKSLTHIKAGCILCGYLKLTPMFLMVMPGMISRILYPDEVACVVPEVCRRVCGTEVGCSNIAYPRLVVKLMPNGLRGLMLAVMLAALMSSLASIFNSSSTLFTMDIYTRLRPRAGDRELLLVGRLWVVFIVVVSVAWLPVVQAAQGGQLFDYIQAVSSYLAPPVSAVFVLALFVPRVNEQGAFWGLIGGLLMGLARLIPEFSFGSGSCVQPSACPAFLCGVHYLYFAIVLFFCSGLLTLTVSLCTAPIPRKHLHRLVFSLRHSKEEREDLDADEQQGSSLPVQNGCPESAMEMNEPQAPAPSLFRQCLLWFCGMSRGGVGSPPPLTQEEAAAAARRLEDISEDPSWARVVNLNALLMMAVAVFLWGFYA

[2] = target: T2, Sodium/glucose cotransporter 1 (Homo sapiens, UniProt P13866); test: Inhibition of SGLT1 transfected in african green monkey COS1 cells assessed as alpha-D-[U-14C]glucopyranoside uptake after 30 mins by scintillation counting; assay type: cell-based, COS-1
T2 sequence (P13866 whole entry): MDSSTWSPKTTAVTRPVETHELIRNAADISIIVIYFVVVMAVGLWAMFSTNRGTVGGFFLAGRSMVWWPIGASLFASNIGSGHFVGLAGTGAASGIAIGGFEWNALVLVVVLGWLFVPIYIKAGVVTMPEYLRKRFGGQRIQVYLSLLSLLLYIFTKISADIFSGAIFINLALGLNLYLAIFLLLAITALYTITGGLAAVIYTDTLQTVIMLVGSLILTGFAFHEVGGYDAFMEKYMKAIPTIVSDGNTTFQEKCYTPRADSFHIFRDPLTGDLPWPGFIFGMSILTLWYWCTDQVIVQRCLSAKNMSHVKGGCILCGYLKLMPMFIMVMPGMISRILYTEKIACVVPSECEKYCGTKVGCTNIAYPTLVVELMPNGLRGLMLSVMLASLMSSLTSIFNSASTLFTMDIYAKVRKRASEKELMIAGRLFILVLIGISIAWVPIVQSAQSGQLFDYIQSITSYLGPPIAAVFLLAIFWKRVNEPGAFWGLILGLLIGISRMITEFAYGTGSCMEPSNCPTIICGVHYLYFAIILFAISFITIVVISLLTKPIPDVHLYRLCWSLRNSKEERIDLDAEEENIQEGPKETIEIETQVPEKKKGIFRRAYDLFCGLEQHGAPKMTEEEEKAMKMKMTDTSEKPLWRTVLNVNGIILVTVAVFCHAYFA

## Oc1cc(O)cc([C@@H]2c3cc([C@@H]4Oc5cc(/C=C/c6ccc(O)cc6O)cc(O)c5[C@H]4c4cc(O)cc(O)c4)c(O)cc3O[C@H]2c2ccc(O)cc2O)c1 [GNEYULIN A]
[1]; read-out: IC50
  IC50: 25 µM
[2]; read-out: IC50
  IC50: 27 µM

## Oc1cc(O)cc([C@@H]2c3cc([C@@H]4Oc5cc(-c6cc7ccc(O)cc7o6)cc(O)c5[C@H]4c4cc(O)cc(O)c4)c(O)cc3O[C@H]2c2ccc(O)cc2O)c1 [GNEYULIN B]
[1]; read-out: IC50
  IC50: 18 µM
[2]; read-out: IC50
  IC50: 37 µM

## COc1cc(O)c2c(c1[C@@H]1O[C@H](CO)[C@@H](O)[C@H](O)[C@H]1O)O[C@H](c1ccc(O)c(O)c1)[C@@H](O)C2=O [NOIDESOL A]
[1]; cos-1
  IC50: Not Active
[2]; cos-1
  IC50: Not Active

## COc1ccc([C@H]2Oc3cc(O)c([C@@H]4O[C@H](CO)[C@@H](O)[C@H](O)[C@H]4O)c(O)c3C(=O)[C@@H]2O)cc1O [NOIDESOL B]
[1]; cos-1
  IC50: Not Active
[2]; cos-1
  IC50: Not Active
